Square brackets hold non-standard residues; d marks the D form. Peptide text beside a SMILES is read from it. * marks the point of attachment. ξ: configuration not given here. Cbz = O=C(OCc1ccccc1)*; Boc = CC(C)(C)OC(=O)*; ξV = CC(C)C(N)C(=O)O; CF3 = FC(F)(F)*; Sar = CNCC(=O)O
How the values were obtained:
Neutrophil elastase = biological target: T1, Neutrophil elastase (Homo sapiens, UniProt P08246); experiment: In vitro inhibitory activity against human leukocyte elastase
T1 sequence (P08246 whole entry): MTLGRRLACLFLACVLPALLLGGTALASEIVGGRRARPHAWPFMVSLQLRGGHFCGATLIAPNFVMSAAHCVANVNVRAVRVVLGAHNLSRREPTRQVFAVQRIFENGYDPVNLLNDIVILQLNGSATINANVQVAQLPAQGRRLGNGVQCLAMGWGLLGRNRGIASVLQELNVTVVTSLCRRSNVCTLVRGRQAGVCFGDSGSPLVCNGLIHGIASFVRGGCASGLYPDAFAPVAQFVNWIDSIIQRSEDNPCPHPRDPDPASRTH

Cricetinae gen. sp. [1] = experiment: Compound was evaluated for inhibition of Elastase-induced Pulmonary hemorrhage (EPH) in hamsters at the dose of 10 micro/mL); type: functional
Cricetinae gen. sp. [2] = experiment: Compound was evaluated for inhibition of Elastase-induced Pulmonary hemorrhage (EPH) in hamsters at the dose of 20 micro/mL); type: functional; set-up: unit not given here
Cricetinae gen. sp. [3] = experiment: Compound was evaluated for inhibition of Elastase-induced Pulmonary hemorrhage (EPH) in hamsters at the dose of 1 micro/mL); type: functional
Cricetinae gen. sp. [4] = experiment: Compound was evaluated for inhibition of Elastase-induced Pulmonary hemorrhage (EPH) in hamsters at the dose of 3 micro/mL); type: functional
Cricetinae gen. sp. [5] = experiment: Compound was evaluated for inhibition of Elastase-induced Pulmonary hemorrhage (EPH) in hamsters at the dose of 30 micro/mL); type: functional
Cricetinae gen. sp. [6] = experiment: Compound was evaluated for inhibition of Elastase-induced Pulmonary hemorrhage (EPH) in hamsters at the dose of 100 micro/mL); type: functional

CC(C)C(NCCN(C(=O)[C@@H](NC(=O)OC(C)(C)C)C(C)C)C1Cc2ccccc2C1)C(=O)C(F)(F)F (stereo partly drawn)
IC50 (Neutrophil elastase): > 5000 nM

CC(C)C(NC(=O)CN(Cc1ccccc1)C(=O)[C@@H](NC(=O)c1ccc(C(=O)NS(=O)(=O)c2ccc(Cl)cc2)cc1)C(C)C)C(=O)C(F)(F)F (stereo partly drawn)
IC50 (Neutrophil elastase): 217 nM

CC(C)C(NC(=O)CN(C(=O)[C@@H](NC(=O)c1ccc(C(=O)NS(=O)(=O)c2ccc(Cl)cc2)cc1)C(C)C)C1CCCCCCC1)C(=O)C(F)(F)F (stereo partly drawn)
IC50 (Neutrophil elastase): 67 nM
Inhibition of elastase-induced pulmonary hemorrhage (Cricetinae gen. sp. [1]): 96.7

CC(C)C(NC(=O)CNC(=O)[C@@H](NC(=O)OC(C)(C)C)C(C)C)C(=O)C(F)(F)F (stereo partly drawn) (Boc-Val-Gly-[ξV]-CF3)
IC50 (Neutrophil elastase): 153 nM

CC(C)C(NC(=O)OCc1ccccc1)C(=O)C(F)(F)F (stereo not drawn)
IC50 (Neutrophil elastase): > 5000 nM

CC(C)C(NC(=O)CNC(=O)[C@@H](NC(=O)c1ccc(C(=O)NS(=O)(=O)c2ccc(Cl)cc2)cc1)C(C)C)C(=O)C(F)(F)F (stereo partly drawn)
Max hemorrhage (Cricetinae gen. sp. [2]): 85.1
IC50 (Neutrophil elastase): 73 nM

CC(C)C(NC(=O)c1ccc(C(=O)NS(=O)(=O)c2ccc(Br)cc2)cc1)C(=O)N1CCC[C@H]1C(=O)N[C@H](C(=O)C(F)(F)F)C(C)C (stereo partly drawn)
Max hemorrhage (Cricetinae gen. sp. [3]): 33.3
Max hemorrhage (Cricetinae gen. sp. [4]): 79.4
Inhibition of elastase-induced pulmonary hemorrhage (Cricetinae gen. sp. [1]): 98.5

CC(C)C(NC(=O)C1Cc2ccccc2CN1C(=O)[C@@H](NC(=O)OCc1ccccc1)C(C)C)C(=O)C(F)(F)F (stereo in doubt; 20y)
IC50 (Neutrophil elastase): 233 nM

CC(C)C(NC(=O)CN(C)C(=O)[C@@H](NC(=O)c1ccc(C(=O)NS(=O)(=O)c2ccc(Cl)cc2)cc1)C(C)C)C(=O)C(F)(F)F (stereo partly drawn)
IC50 (Neutrophil elastase): 52 nM

CC(C)C(NC(=O)C1Cc2ccccc2CN1C(=O)[C@@H](NC(=O)c1ccc(C(=O)NS(=O)(=O)c2ccc(Cl)cc2)cc1)C(C)C)C(=O)C(F)(F)F (stereo partly drawn)
Max hemorrhage (Cricetinae gen. sp. [2]): 88.4

CC(C)[C@H](NC(=O)OCc1ccccc1)C(=O)N(CC(=O)NCC(=O)C(F)(F)F)C1Cc2ccccc2C1
IC50 (Neutrophil elastase): > 5000 nM

CC(C)[C@H](NC(=O)CN(C(=O)[C@@H](NC(=O)OCc1ccccc1)C(C)C)C1Cc2ccccc2C1)C(=O)c1ccc(C(F)(F)F)cc1
IC50 (Neutrophil elastase): > 5000 nM

CC(C)C(NC(=O)CN(C(=O)[C@@H](NC(=O)c1ccc(C(=O)NS(=O)(=O)c2ccc(Cl)cc2)cc1)C(C)C)C1CCCC1)C(=O)C(F)(F)F (stereo partly drawn)
Max hemorrhage (Cricetinae gen. sp. [2]): 99.2
IC50 (Neutrophil elastase): 92 nM

CC(C)C(NC(=O)CN(C(=O)OCc1ccccc1)C1Cc2ccccc2C1)C(=O)C(F)(F)F (stereo not drawn)
IC50 (Neutrophil elastase): > 5000 nM

CC(C)C(NC(=O)CN(C(=O)[C@@H](NC(=O)OCc1ccccc1)C(C)C)C1Cc2ccccc2C1)C(=O)C(F)(F)F (stereo partly drawn)
Max hemorrhage (Cricetinae gen. sp. [2]): 24.2

CCOC(=O)CCC(=O)Nc1nc(/C(=N\OC)C(=O)N[C@H](C(=O)N(CC(=O)NC(C(=O)C(F)(F)F)C(C)C)C2Cc3ccccc3C2)C(C)C)cs1 (stereo partly drawn)
IC50 (Neutrophil elastase): 452 nM

CC(C)[C@H](NC(=O)c1ccc(C(=O)NS(=O)(=O)c2ccc(Cl)cc2)cc1)C(=O)N(CC(=O)NC(Cc1ccccc1)C(=O)C(F)(F)F)C1Cc2ccccc2C1 (stereo partly drawn)
Max hemorrhage (Cricetinae gen. sp. [2]): 43.8
IC50 (Neutrophil elastase): > 5000 nM

CC(C)C(NC(=O)[C@H]1CCCN1C(=O)[C@@H](NC(=O)OC(C)(C)C)C(C)C)C(=O)C(F)(F)F (stereo partly drawn)
IC50 (Neutrophil elastase): 172 nM

CCOC(=O)N1CCC(N(CC(=O)NC(C(=O)C(F)(F)F)C(C)C)C(=O)[C@@H](NC(=O)OCc2ccccc2)C(C)C)CC1 (stereo partly drawn)
IC50 (Neutrophil elastase): 507 nM

CC(C)C(NC(=O)CN(C(=O)[C@@H](NC(=O)c1ccc(C(=O)NS(=O)(=O)c2ccc(Cl)cc2)cc1)C(C)C)C1Cc2ccccc2C1)C(=O)C(F)(F)F (stereo partly drawn)
Max hemorrhage (Cricetinae gen. sp. [4]): 58.1
Max hemorrhage (Cricetinae gen. sp. [5]): 99.3
Inhibition of elastase-induced pulmonary hemorrhage (Cricetinae gen. sp. [1]): 90.5

CC(C)[C@H](NC(=O)c1ccc(C(=O)NS(=O)(=O)c2ccc(Cl)cc2)cc1)C(=O)N(CC(=O)NC(C)(C)C(=O)C(F)(F)F)C1Cc2ccccc2C1
IC50 (Neutrophil elastase): > 5000 nM

COc1ccc(CCN(CC(=O)NC(C(=O)C(F)(F)F)C(C)C)C(=O)[C@@H](NC(=O)c2ccc(C(=O)NS(=O)(=O)c3ccc(Cl)cc3)cc2)C(C)C)cc1OC (stereo partly drawn)
IC50 (Neutrophil elastase): 84 nM

CC(C)C(NC(=O)CN(C(=O)[C@@H](NC(=O)c1ccc(C(=O)NS(=O)(=O)c2ccc(Cl)cc2)cc1)C(C)C)C1CCCCCC1)C(=O)C(F)(F)F (stereo partly drawn)
Max hemorrhage (Cricetinae gen. sp. [2]): 84.3
IC50 (Neutrophil elastase): 175 nM

CC(C)C(NC(=O)C1Cc2ccccc2CN1C(=O)[C@@H](NC(=O)OCc1ccccc1)C(C)C)C(=O)C(F)(F)F (stereo in doubt; 20z)
IC50 (Neutrophil elastase): 73 nM

CC(C)C(NC(=O)C1CCCN1C(=O)[C@@H](NC(=O)OC(C)(C)C)C(C)C)C(=O)C(F)(F)F (stereo partly drawn)
IC50 (Neutrophil elastase): 65 nM

CC(C)C(NCCN(C(=O)[C@@H](NC(=O)c1ccc(C(=O)NS(=O)(=O)c2ccc(Cl)cc2)cc1)C(C)C)C1Cc2ccccc2C1)C(=O)C(F)(F)F (stereo partly drawn)
IC50 (Neutrophil elastase): 5000 nM
Inhibition of elastase-induced pulmonary hemorrhage (Cricetinae gen. sp. [1]): 2.7

CC(C)C(NC(=O)CN(Cc1ccco1)C(=O)[C@@H](NC(=O)c1ccc(C(=O)NS(=O)(=O)c2ccc(Cl)cc2)cc1)C(C)C)C(=O)C(F)(F)F (stereo partly drawn)
IC50 (Neutrophil elastase): 138 nM
Inhibition of elastase-induced pulmonary hemorrhage (Cricetinae gen. sp. [1]): 96.2

CC(C)C(NC(=O)CN(C(=O)[C@@H](NC(=O)c1ccc(C(=O)NS(=O)(=O)c2ccc(Cl)cc2)cc1)C(C)C)C1CC2CCC1C2)C(=O)C(F)(F)F (stereo partly drawn)
Max hemorrhage (Cricetinae gen. sp. [2]): 93.8

CC(C)[C@H](NC(=O)CN(C(=O)[C@@H](NC(=O)c1ccc(C(=O)NS(=O)(=O)c2ccc(Cl)cc2)cc1)C(C)C)C1Cc2ccccc2C1)C(=O)c1ccc(C(F)(F)F)cc1
IC50 (Neutrophil elastase): 5100 nM
Inhibition of elastase-induced pulmonary hemorrhage (Cricetinae gen. sp. [1]): 7.7

CC(NC(=O)CN(C(=O)[C@@H](NC(=O)c1ccc(C(=O)NS(=O)(=O)c2ccc(Cl)cc2)cc1)C(C)C)C1Cc2ccccc2C1)C(=O)C(F)(F)F (stereo partly drawn)
IC50 (Neutrophil elastase): 817 nM

CC(=O)OCC1=C(C(=O)OC(C)(C)C)N2C(=O)[C@@H](C(C)=O)C2S(=O)(=O)C1 (stereo partly drawn)
Max hemorrhage (Cricetinae gen. sp. [6]): 0

CC(C)C(NC(=O)CN(C)C(=O)[C@@H](NC(=O)OCc1ccccc1)C(C)C)C(=O)C(F)(F)F (stereo partly drawn) (Cbz-Val-[Sar]-[ξV]-CF3)
IC50 (Neutrophil elastase): 153 nM

CC(C)C(NC(=O)CN(C(=O)[C@@H](NC(=O)c1ccc(C(=O)NS(=O)(=O)c2ccc(Br)cc2)cc1)C(C)C)C1Cc2ccccc2C1)C(=O)C(F)(F)F (stereo partly drawn)
IC50 (Neutrophil elastase): 149 nM

CC(C)C(NC(=O)CN(CC1CCCO1)C(=O)[C@@H](NC(=O)c1ccc(C(=O)NS(=O)(=O)c2ccc(Cl)cc2)cc1)C(C)C)C(=O)C(F)(F)F (stereo partly drawn)
IC50 (Neutrophil elastase): 30 nM

CCOC(=O)N1CCC(N(CC(=O)NC(C(=O)C(F)(F)F)C(C)C)C(=O)[C@@H](NC(=O)c2ccc(C(=O)NS(=O)(=O)c3ccc(Cl)cc3)cc2)C(C)C)CC1 (stereo partly drawn)
Max hemorrhage (Cricetinae gen. sp. [2]): 98.4
IC50 (Neutrophil elastase): 57 nM
